Among the data in ChEMBL document CHEMBL2321873, “1-(4-Phenylpiperazin-1-yl)-2-(1H-pyrazol-1-yl)ethanones as novel CCR1 antagonists” (Bioorg Med Chem Lett, 2013) are inhibition, Activity and IC50 values, retold here.

The target in data set [1] is T1, Atypical chemokine receptor 1 (Homo sapiens) (UniProt Q16570).
T1 sequence (whole entry): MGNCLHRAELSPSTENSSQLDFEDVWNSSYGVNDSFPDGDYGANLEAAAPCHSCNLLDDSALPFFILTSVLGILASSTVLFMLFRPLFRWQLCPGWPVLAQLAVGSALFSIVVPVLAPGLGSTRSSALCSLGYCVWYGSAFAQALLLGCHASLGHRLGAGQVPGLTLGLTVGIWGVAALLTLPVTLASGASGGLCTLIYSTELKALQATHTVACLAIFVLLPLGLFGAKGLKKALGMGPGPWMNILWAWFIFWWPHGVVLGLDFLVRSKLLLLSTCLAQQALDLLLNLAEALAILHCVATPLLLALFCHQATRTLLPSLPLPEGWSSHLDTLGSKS
Description: Antagonist activity at Duffy (unknown origin) assessed as inhibition of chemotaxis at 10 uM.

Data set [2] deals with Atypical chemokine receptor 3 (Homo sapiens) (UniProt P25106). Description: Antagonist activity at CXCR7 (unknown origin) assessed as inhibition of chemotaxis at 10 uM.
The target of data set [3] is T2, C-C chemokine receptor-like 2 (Homo sapiens) (UniProt O00421).
T2 sequence (whole entry): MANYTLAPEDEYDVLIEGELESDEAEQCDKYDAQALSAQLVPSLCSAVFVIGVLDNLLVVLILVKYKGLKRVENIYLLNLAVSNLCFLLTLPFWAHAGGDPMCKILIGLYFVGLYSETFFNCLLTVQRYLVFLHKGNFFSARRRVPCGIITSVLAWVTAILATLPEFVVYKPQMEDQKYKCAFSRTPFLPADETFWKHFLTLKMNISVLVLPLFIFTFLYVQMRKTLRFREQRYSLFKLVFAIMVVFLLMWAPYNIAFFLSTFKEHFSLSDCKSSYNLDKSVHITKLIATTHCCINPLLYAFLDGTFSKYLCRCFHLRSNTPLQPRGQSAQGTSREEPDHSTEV
Put plainly: Antagonist activity at CCR11 (unknown origin) assessed as inhibition of chemotaxis at 10 uM.

Data set [4] has as its target T3, C-C chemokine receptor type 9 (Homo sapiens) (UniProt P51686).
T3 sequence (whole entry): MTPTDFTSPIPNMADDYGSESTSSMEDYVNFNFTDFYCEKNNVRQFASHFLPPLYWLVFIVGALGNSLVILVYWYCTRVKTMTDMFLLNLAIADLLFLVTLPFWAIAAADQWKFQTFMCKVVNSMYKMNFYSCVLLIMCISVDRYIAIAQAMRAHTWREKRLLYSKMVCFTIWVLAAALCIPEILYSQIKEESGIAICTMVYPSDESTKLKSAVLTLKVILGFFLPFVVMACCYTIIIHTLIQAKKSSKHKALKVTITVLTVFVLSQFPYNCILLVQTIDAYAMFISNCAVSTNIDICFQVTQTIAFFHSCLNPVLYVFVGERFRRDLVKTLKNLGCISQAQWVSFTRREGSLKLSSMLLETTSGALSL
Description: Antagonist activity at CCR9 (unknown origin) assessed as inhibition of chemotaxis at 10 uM.

Data set [5] concerns the target C-C chemokine receptor type 2 (Homo sapiens) (UniProt P41597). Put plainly: Antagonist activity at CCR2 (unknown origin) assessed as inhibition of chemotaxis at 10 uM.
In data set [6] the target is T4, C-X-C chemokine receptor type 1 (Homo sapiens) (UniProt P25024).
T4 sequence (whole entry): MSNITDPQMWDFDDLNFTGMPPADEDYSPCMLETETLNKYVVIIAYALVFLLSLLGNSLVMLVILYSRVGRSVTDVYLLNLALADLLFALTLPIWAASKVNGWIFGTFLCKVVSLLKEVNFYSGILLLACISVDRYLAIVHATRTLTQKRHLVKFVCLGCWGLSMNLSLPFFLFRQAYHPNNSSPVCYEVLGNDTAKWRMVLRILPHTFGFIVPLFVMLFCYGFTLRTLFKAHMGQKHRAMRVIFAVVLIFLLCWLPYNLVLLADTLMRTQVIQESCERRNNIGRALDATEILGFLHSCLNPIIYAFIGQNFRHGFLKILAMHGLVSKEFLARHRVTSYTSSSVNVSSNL
Put plainly: Antagonist activity at CXCR1 (unknown origin) assessed as inhibition of calcium flux at 10 uM. It is filed as functional. On the technique in general: Calcium flux is commonly read through the fluorescence of an indicator in the cells.

In data set [7] the target is T5, C-C chemokine receptor type 6 (Homo sapiens) (UniProt P51684).
T5 sequence (whole entry): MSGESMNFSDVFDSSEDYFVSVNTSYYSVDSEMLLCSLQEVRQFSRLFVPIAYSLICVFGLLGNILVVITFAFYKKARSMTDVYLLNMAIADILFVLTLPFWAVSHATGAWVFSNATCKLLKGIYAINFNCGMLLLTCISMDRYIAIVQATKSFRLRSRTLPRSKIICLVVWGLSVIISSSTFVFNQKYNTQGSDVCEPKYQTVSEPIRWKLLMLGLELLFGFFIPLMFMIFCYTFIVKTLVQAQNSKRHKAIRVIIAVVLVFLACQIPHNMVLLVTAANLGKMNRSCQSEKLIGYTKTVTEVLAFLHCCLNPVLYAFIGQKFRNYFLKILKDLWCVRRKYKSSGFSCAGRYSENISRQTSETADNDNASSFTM
Put plainly: Antagonist activity at CCR6 (unknown origin) assessed as inhibition of calcium flux at 10 uM. The format is functional.

The target in data set [8] is T6, C-X-C chemokine receptor type 5 (Homo sapiens) (UniProt P32302).
T6 sequence (whole entry): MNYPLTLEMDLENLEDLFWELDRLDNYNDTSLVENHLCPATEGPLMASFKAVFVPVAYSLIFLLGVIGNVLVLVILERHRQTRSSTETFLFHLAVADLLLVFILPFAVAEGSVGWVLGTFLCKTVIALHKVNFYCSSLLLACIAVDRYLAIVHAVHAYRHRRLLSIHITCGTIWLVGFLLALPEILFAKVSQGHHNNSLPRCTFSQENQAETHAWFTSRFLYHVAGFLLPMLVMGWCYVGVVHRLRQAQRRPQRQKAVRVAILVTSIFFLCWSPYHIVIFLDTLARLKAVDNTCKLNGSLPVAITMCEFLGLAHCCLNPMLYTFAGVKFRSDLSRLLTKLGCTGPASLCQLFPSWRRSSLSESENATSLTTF
Description: Binding affinity to CXCR5 (unknown origin) at 10 uM by radioligand displacement assay. A general note: In a radioligand displacement assay an active substance lowers the binding of a labelled ligand.

Data set [9] addresses T3, C-C chemokine receptor type 9 (Homo sapiens). Description: Binding affinity to CCR9 (unknown origin) at 10 uM by radioligand displacement assay.
Data set [10] deals with C-C chemokine receptor type 2 (Homo sapiens) (UniProt P41597). Description: Binding affinity to CCR2 (unknown origin) at 10 uM by radioligand displacement assay.
Data set [11] has as its target Voltage-gated inwardly rectifying potassium channel KCNH2 (Homo sapiens, UniProt Q12809). Put plainly: Binding affinity to human ERG by patch clamp assay.
The target in a further data set is Cytochrome P450 3A4 (Homo sapiens, UniProt P08684). Put plainly: Competitive inhibition of CYP3A4 (unknown origin). It is filed as ADME.
The subject of data set [12] is Rattus norvegicus. Description: Toxicity in Sprague-Dawley rat assessed as effect on complete blood cell count at 70 to 360 mg/kg, po after 7 days. The format is organism-based. On the set-up: dose 70-360 mg/kg, route oral. Particulars: in vivo, 168 h.
For data set [13], the system named is Rattus norvegicus. Put plainly: Toxicity in Sprague-Dawley rat assessed as necropsy at 70 to 360 mg/kg, po after 7 days. Also on record: dose 70-360 mg/kg, route oral. To be noted: in vivo, 168 h. It is filed as organism-based.

Active and inactive are the calls of the source. The calls are words filed in the database; no cut-off is given here.

C-C chemokine receptor type 2 (Homo sapiens), sequence (P41597 whole entry, looked up): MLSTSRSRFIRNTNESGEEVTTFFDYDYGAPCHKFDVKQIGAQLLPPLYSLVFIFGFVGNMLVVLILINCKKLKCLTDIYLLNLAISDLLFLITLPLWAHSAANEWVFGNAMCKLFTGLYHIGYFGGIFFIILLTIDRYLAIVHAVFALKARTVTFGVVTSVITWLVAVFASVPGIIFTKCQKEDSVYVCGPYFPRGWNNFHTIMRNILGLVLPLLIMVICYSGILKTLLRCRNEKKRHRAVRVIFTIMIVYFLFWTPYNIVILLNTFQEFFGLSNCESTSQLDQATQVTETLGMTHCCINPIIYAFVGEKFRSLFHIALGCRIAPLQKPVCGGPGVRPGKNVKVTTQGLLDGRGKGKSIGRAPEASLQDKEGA
Atypical chemokine receptor 3 (Homo sapiens), sequence (P25106 whole entry): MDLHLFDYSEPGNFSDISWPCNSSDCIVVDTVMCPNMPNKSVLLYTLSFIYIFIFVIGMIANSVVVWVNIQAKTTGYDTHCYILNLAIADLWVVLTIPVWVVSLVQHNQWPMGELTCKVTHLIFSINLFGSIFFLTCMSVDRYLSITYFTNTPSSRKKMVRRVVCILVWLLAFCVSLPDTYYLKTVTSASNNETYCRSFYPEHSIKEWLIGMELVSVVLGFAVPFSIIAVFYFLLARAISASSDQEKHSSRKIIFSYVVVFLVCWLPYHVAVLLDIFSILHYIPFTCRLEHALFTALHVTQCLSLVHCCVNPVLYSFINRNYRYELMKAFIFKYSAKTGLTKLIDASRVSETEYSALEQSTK
Cytochrome P450 3A4, sequence (P08684 whole entry): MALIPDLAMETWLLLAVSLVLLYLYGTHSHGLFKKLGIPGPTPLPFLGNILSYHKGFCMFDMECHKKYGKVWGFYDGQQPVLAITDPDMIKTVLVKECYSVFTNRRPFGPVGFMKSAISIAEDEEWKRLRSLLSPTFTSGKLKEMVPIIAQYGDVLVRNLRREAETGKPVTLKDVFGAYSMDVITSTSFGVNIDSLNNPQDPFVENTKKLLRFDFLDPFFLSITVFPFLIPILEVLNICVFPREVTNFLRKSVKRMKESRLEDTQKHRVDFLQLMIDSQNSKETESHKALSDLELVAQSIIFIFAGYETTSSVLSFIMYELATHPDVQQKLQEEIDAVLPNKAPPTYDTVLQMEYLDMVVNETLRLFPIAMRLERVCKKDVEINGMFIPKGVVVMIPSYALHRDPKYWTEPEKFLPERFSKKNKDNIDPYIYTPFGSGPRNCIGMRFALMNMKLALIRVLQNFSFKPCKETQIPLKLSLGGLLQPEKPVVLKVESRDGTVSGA
Voltage-gated inwardly rectifying potassium channel KCNH2, sequence (Q12809 whole entry): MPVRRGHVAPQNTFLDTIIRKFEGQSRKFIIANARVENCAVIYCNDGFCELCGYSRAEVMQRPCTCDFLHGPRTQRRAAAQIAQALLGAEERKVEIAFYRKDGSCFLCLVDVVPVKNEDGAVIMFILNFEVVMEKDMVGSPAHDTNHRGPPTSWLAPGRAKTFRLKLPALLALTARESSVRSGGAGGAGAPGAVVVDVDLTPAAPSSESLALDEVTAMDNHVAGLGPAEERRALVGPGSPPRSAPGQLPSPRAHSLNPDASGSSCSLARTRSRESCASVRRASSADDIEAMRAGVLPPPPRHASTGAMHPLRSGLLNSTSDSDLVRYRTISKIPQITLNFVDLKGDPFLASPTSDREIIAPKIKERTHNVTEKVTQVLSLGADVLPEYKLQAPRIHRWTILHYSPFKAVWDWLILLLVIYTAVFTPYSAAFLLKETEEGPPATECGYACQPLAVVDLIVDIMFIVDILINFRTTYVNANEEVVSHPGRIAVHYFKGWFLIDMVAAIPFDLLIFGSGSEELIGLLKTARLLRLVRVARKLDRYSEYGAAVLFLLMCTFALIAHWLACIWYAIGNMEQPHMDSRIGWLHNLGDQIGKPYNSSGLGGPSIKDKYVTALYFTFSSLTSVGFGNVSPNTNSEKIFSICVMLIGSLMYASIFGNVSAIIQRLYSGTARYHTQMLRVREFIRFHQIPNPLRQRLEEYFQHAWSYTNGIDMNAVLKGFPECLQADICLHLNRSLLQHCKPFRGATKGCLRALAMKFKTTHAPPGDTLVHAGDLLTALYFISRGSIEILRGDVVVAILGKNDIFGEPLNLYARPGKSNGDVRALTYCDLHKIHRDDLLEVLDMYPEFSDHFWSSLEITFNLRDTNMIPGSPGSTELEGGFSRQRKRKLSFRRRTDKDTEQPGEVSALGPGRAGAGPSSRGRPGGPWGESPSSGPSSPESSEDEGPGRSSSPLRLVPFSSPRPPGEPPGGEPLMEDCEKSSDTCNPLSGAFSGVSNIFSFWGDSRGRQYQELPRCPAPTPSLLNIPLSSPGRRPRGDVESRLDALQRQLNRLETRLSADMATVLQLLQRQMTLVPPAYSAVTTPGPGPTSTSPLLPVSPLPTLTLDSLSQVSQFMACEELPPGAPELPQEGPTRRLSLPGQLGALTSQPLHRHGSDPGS

By IC50 is commonly meant the point on the concentration scale where inhibition reaches its midpoint. Higher therefore signals weaker potency. With `COc1cc(N2CCN(C(=O)Cn3nc(C(F)(F)F)c(Cl)c3C)CC2)ccc1Cl`, the inhibition result in [1], in data set [2], in data set [3], in [4], in data set [5] and in [6] was “inactive” in each case. Moreover, in data set [7], the inhibition entry is “inactive”. The outcome in data set [8], in data set [9] and in data set [10] was inactive. In addition, the IC50 in [11] was 16 µM; at Cytochrome P450 3A4 it was above 10 µM. Further, the Activity result in the data set with Rattus norvegicus [12] and in the data set with Rattus norvegicus [13] was “Non-toxic” throughout.
